Assay results as given in patent US12234230B2, “Substituted benzyl-triazole compounds for Cbl-b inhibition, and further uses thereof” (Nurix Therapeutics, Inc., priority 2019, dated 2025).

Columns and labels:
Cbl-b = Cbl-b (Homo sapiens (Human), UniProt Q13191); experiment: Cbl-b displacement assay (Cbl-b inhibition assay), Biological Example 1; type: binding; conditions: 0.125 nM Cbl-b final concentration (Low); read-out: Cbl-b activity IC50 (Low)
Procedure: The ability of candidate compounds to displace a known inhibitor and thereby inhibit Cbl-b activity was measured by monitoring the interaction of Cbl-b with a fluorophore-labeled probe in the presence of the candidate compound.
Following the one hour incubation, the plates were read for TR-FRET signal at 520/620 nm using an Envision plate reader (Perkin Elmer).

[1] = system: primary human total T-cells; experiment: Primary human total T-cell activation (IL-2 secretion, CD25 surface staining), Biological Example 2; conditions: fold change over baseline; for IL-2 secretion CD3/CD28 0.3 μM / CD25 staining CD3/CD28 0.3 μM: 0.3 μM inhibitor; for IL-2 secretion CD3/CD28 0.3 μM / IL-2 secretion CD3/CD28 1 μM / CD25 staining CD3/CD28 0.3 μM / CD25 staining CD3/CD28 1 μM: anti-CD3 and anti-CD28 co-stimulation; for IL-2 secretion CD3/CD28 1 μM / CD25 staining CD3 1 μM / IL-2 secretion CD3 1 μM / CD25 staining CD3/CD28 1 μM: 1 μM inhibitor; for CD25 staining CD3 1 μM / IL-2 secretion CD3 1 μM / CD25 staining CD3 3 μM / IL-2 secretion CD3 3 μM: anti-CD3 stimulation alone; for CD25 staining CD3 3 μM / IL-2 secretion CD3 3 μM: 3 μM inhibitor

Cbl-b, sequence (Q13191 36-427): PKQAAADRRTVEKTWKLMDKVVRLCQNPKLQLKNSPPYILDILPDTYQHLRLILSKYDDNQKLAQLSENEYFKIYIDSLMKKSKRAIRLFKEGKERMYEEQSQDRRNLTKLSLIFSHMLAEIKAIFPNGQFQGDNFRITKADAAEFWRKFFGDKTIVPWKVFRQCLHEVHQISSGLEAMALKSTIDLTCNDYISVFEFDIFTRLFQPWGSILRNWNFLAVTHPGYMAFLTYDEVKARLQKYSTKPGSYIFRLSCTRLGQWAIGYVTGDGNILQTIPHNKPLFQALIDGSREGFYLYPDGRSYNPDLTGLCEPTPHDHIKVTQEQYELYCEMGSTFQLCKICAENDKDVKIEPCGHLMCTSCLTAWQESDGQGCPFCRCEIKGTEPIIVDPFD

IC50 (Cbl-b) [nM] | Structure (SMILES) | IL-2 secretion CD3/CD28 0.3 μM [1] | IL-2 secretion CD3/CD28 1 μM [1] | CD25 staining CD3 1 μM [1] | IL-2 secretion CD3 1 μM [1] | CD25 staining CD3 3 μM [1] | IL-2 secretion CD3 3 μM [1] | CD25 staining CD3/CD28 0.3 μM [1] | CD25 staining CD3/CD28 1 μM [1]
< 5 | C[C@@H]1CN(Cc2cc3c(c(C(F)(F)F)c2)CN(c2cccc(C4(c5nncn5C)CC(F)(F)C4)c2)C3=O)CCC1(F)F [Compound 52, 2-{3-[3,3-difluoro-1-(4-methyl-1,2,4-triazol-3-yl)cyclobutyl]phenyl}-6-{[(3R)-4,4-difluoro-3-methylpiperidin-1-yl]methyl}-4-(trifluoromethyl)-3H-isoindol-1-one] | A (A indicates >35 fold) | B (B indicates 20-35 fold) | A (A indicates >2.5 fold) | A (A indicates >1.1 fold) | A (A indicates >2.5 fold) | A (A indicates >1.1 fold) |  | 
< 5 | C[C@@H]1CN(Cc2cc3c(c(C(F)(F)F)c2)CN(c2cccc(C4(c5nncn5C)CC(F)(F)C4)c2)C3=O)CCO1 [Compound 53, 2-{3-[3,3-difluoro-1-(4-methyl-1,2,4-triazol-3-yl)cyclobutyl]phenyl}-6-{[(2R)-2-methylmorpholin-4-yl]methyl}-4-(trifluoromethyl)-3H-isoindol-1-one] | A (A indicates >35 fold) | A (A indicates >35 fold) | A (A indicates >2.5 fold) | A (A indicates >1.1 fold) | A (A indicates >2.5 fold) | A (A indicates >1.1 fold) |  | 

The next lines start with the molecule.

Structure (SMILES) | IC50 (Cbl-b) [nM] | IL-2 secretion CD3/CD28 0.3 μM [1] | IL-2 secretion CD3/CD28 1 μM [1] | CD25 staining CD3 1 μM [1] | IL-2 secretion CD3 1 μM [1] | CD25 staining CD3 3 μM [1] | IL-2 secretion CD3 3 μM [1] | CD25 staining CD3/CD28 0.3 μM [1] | CD25 staining CD3/CD28 1 μM [1]
C[C@@H]1CN(Cc2cc3c(c(C(F)(F)F)c2)CN(c2cccc(C4(c5nncn5C)COC4)c2)C3=O)CCC1(F)F [Compound 47, 6-[[(3R)-4,4-difluoro-3-methyl-1-piperidyl]methyl]-2-[3-[3-(4-methyl-1,2,4-triazol-3-yl)oxetan-3-yl]phenyl]-4-(trifluoromethyl)isoindolin-1-one] | < 5 | A (A indicates >35 fold) | A (A indicates >35 fold) | B (B indicates 1.5-2.5 fold) | B (B indicates 0.70-1.1 fold) | B (B indicates 1.5-2.5 fold) | C (C indicates <0.70 fold) |  | 
C[C@H]1CCCN(Cc2cc3c(c(C(F)(F)F)c2)CN(c2cccc([C@]4(c5nncn5C)C[C@@H](CC#N)C4)c2)C3=O)C1 [Compound 48, 2-((1R,3s)-3-(4-methyl-4H-1,2,4-triazol-3-yl)-3-(3-(6-(((S)-3-methylpiperidin-1-yl)methyl)-1-oxo-4-(trifluoromethyl)isoindolin-2-yl)phenyl)cyclobutyl)acetonitrile] | < 5 | B (B indicates 20-35 fold) | A (A indicates >35 fold) | A (A indicates >2.5 fold) | A (A indicates >1.1 fold) | B (B indicates 1.5-2.5 fold) | B (B indicates 0.70-1.1 fold) |  | 
C[C@@H]1CN(Cc2cc3c(c(C(F)(F)F)c2)CN(c2cccc([C@]4(c5nncn5C)C[C@@H](CC#N)C4)c2)C3=O)CCC1(F)F [Compound 49, 2-((1S,3s)-3-(3-(6-(((R)-4,4-difluoro-3-methylpiperidin-1-yl)methyl)-1-oxo-4-(trifluoromethyl)isoindolin-2-yl)phenyl)-3-(4-methyl-4H-1,2,4-triazol-3-yl)cyclobutyl)acetonitrile] | < 5 | A (A indicates >35 fold) | A (A indicates >35 fold) | A (A indicates >2.5 fold) | A (A indicates >1.1 fold) | A (A indicates >2.5 fold) | A (A indicates >1.1 fold) | B (B indicates 1.24-1.39 fold) | B (B indicates 1.24-1.39 fold)
C[C@H]1CCCN(Cc2cc3c(c(C(F)(F)F)c2)CN(c2cccc([C@]4(c5nncn5C)C[C@H](CC#N)C4)c2)C3=O)C1 [Compound 50, 2-((1S,3r)-3-(4-methyl-4H-1,2,4-triazol-3-yl)-3-(3-(6-(((S)-3-methylpiperidin-1-yl)methyl)-1-oxo-4-(trifluoromethyl)isoindolin-2-yl)phenyl)cyclobutyl)acetonitrile] | < 5 | A (A indicates >35 fold) | A (A indicates >35 fold) | A (A indicates >2.5 fold) | A (A indicates >1.1 fold) | A (A indicates >2.5 fold) | A (A indicates >1.1 fold) |  | 
C[C@@H]1CN(Cc2cc3c(c(C(F)(F)F)c2)CN(c2cccc([C@]4(c5nncn5C)C[C@H](CC#N)C4)c2)C3=O)CCC1(F)F [Compound 51, 2-((1R,3r)-3-(3-(6-(((R)-4,4-difluoro-3-methylpiperidin-1-yl)methyl)-1-oxo-4-(trifluoromethyl)isoindolin-2-yl)phenyl)-3-(4-methyl-4H-1,2,4-triazol-3-yl)cyclobutyl)acetonitrile] | < 5 | A (A indicates >35 fold) | A (A indicates >35 fold) | A (A indicates >2.5 fold) | A (A indicates >1.1 fold) | A (A indicates >2.5 fold) | A (A indicates >1.1 fold) | B (B indicates 1.24-1.39 fold) | B (B indicates 1.24-1.39 fold)
